Measured values as given in patent US5514648A, “Fungicidally active compounds” (priority 1990, dated 1996).
Where a SMILES comes first, the peptide text is derived from it. [ ]: non-standard residue; d: D form. NMeI = CC[C@H](C)[C@H](NC)C(=O)O; NMeD = CN[C@@H](CC(=O)O)C(=O)O; NMeV = CN[C@H](C(=O)O)C(C)C; Pip = O=C(O)[C@@H]1CCCCN1; dLac = C[C@@H](O)C(=O)O

Key:
A. fumigatus = assay: Fungicidal activity, mycelial growth on potato dextrose agar; type: cell-based, Aspergillus fumigatus; settings: in as low concentrations as 0.0016 μg/ml, 3 to 6 days
Method: (§1) Experiments were carried out to determine the potency of the compound of formula IV towards various fungi. The active ingredient was dissolved in 60% ethanol and added to cooled potato dextrose agar to give final concentrations of 25, 5, 1, 0.2, 0.04 and 0.0016 μg a.i. per ml agar, respectively. Control dishes contained no active ingredient.
(§2) 10 ml Agar was poured into 9 cm petri dishes and each concentration was inoculated with actively growing mycelium of the fungal isolates tested for. The dishes were incubated at the optimum temperature for growth of the isolates for 3 to 6 days after which time the growth was measured in mm and compared to the controls.
(§3) The test isolates covered a broad range of fungi within the Oomycetes, the Ascomycetes, the Basidiornycetes, the Deuterornycetes, and the Zygomycetes.

P. digitatum = assay: as above; type: cell-based, Penicillium digitatum; settings: in as low concentrations as 0.0016 μg/ml, 3 to 6 days
Method: as §1, §2, §3

S. sclerotiorum = assay: as above; type: cell-based, Sclerotinia sclerotiorum; settings: in as low concentrations as 0.0016 μg/ml, 3 to 6 days
Method: as §1, §2, §3

[1] = in vitro testing of dermal irritation (Skintex)
Text: (§4) The toxicity of BK 202 was investigated in the following tests using the compound of formula IV in crystaline form: […]
(§5) Ames spot tests and in vitro testing of dermal irritation (Skintex®).

A. pisi = assay: Fungicidal activity, mycelial growth on potato dextrose agar; type: cell-based, Ascochyta pisi; settings: in as low concentrations as 0.0016 μg/ml, 3 to 6 days
Method: as §1, §2, §3

Botrytis cinerea [2] = assay: Activity against Botrytis cinerea on apples (Golden Delicious); type: in vivo; settings: suspension 9.8 μg active ingredient per ml; inoculated the following day; one week, 18°-20° C.; untreated fruits 100% infected
Method: Artificially injured apples were sprayed with a suspension containing 9.8 μg active ingredient per ml.On the following day the treated fruits were inoculated with a spore suspension of the fungus containing 1×10^5 /ml, and incubated for a week at high air humidity and 18°-20° C. At the evaluation the infected places of injury were counted and from that the fungicidal effect of the test substance evaluated. […] The untreated fruits were 100% infected with Botrytis cinerea.

Ascomycetous species = assay: Fungicidal activity, mycelial growth on potato dextrose agar; type: cell-based, Ascomycetes; settings: 25 to 0.0016 μg a.i. per ml agar
Method: as §1, §2, §3

Oornycetous species = assay: as above; type: cell-based, Oomycetes; settings: 25 to 0.0016 μg a.i. per ml agar
Method: as §1, §2, §3

[3] = Toxicology IC50, Chemiluminescent; settings: estimated
Method: Based on these tests the IC50 values for BK 202 were estimated as: Chemiluminescent >10 μg/ml

V. inequalis = assay: Fungicidal activity, mycelial growth on potato dextrose agar; type: cell-based, Venturia inequalis; settings: in as low concentrations as 0.0016 μg/ml, 3 to 6 days
Method: as §1, §2, §3

Deuterornycetous species = assay: as above; type: cell-based, Deuterornycetes; settings: 25 to 0.0016 μg a.i. per ml agar
Method: as §1, §2, §3

P. teres = assay: as above; type: cell-based, Pyrenophora teres; settings: in as low concentrations as 0.0016 μg/ml, 3 to 6 days
Method: as §1, §2, §3

[4] = Temperature and pH stability (HPLC); type: physicochemical; settings: buffer, 16 hours
Method: Procedure: The compound BK202 was solubilized in buffer at the pHs indicated in FIG. 1, and then placed at 25°-55° C. for 16 hours. The buffers used were phosphate-citrate (T. C. McIlvaine, J. Biol. Chem. 49,183(1921), in the pH range 2.5-7 and from pH 7-9.5 is used TRIS 0.05 M. After 16 hours, the samples were filtered on a membrane filter 0.45 μm, and then analyzed by the HPLC method.
However, this may reside in experimental error.
Column: Spherisorb Hexyl 5 μm, 140 mm×4.6 mm
Eluent: 55% Acetonitrile +0.1% Trifluor acetic Acid
Retention time: ca. 6.3 minutes

P. sorghina = assay: Fungicidal activity, mycelial growth on potato dextrose agar; type: cell-based, Phoma sorghina; settings: 25 to 0.0016 μg a.i. per ml agar, 3 to 6 days
Method: as §1, §2, §3

Zygomycetous species = assay: as above; type: cell-based, Zygomycetes; settings: 25 to 0.0016 μg a.i. per ml agar
Method: as §1, §2, §3

Botrytis cinerea [5] = assay: Field trial, Botrytis cinerea on grapes (Ugni Blanc); type: in vivo; settings: 100, 300, and 900 g a.i./ha, three sprayings
Text: Field trial performed in Bordeaux, France, in accordance with CEB Method No. 37. A plot consisted of 15 plants in one row and six replicates were used. The active compound was used in a test formulation containing approximately 10% active ingredient (a.i.). Three concentrations of active compound were applied: 100, 300, and 900 g a.i./ha. The water volume was 300 l/ha. The grapes were sprayed at the following growth stages: T1, end of formation of bunches of grapes; T2, beginning of ripening of grapes; and T3, 3 to 4 weeks before harvest. The commercial fungicides […]® and BASULTRA® were used as standard references. The assessment was performed by estimating the intensity and frequency of the Botrytis cinerea attack after the appearance of the disease.

Ames spot tests = type: cell-based; settings: crystalline compound
Text: as §4, §5

C. beticola = assay: Fungicidal activity, mycelial growth on potato dextrose agar; type: cell-based, Cercospora beticola; settings: 25 to 0.0016 μg a.i. per ml agar, 3 to 6 days
Method: as §1, §2, §3

[6] = system: Botrytis cinerea isolate C (sensitive, normal); assay: In vitro agar growth assay, sensitive Botrytis cinerea; type: cell-based; settings: 3 days, 25 C, control 74
Method: Activity against fungicide resistant Botrytis cinerea isolates One isolate resistant to BENLATE® (isolate A), and one isolate resistant to BENLATE®,ROVRAL® and SUMISCLEX® (isolate B) were isolated from plants which had been sprayed with the above mentioned pesticides. The effect of BK 202 on these isolates was determined in an in vitro assay and compared with the three commercial pesticides. The fungicides were added to agar and dispensed in petri dishes at different concentrations and were inoculated with a sensitive (normal(isolate C)) and the two resistant strains. After 3 days at a temperature of 25 C growth was measured in mm.

Botrytis cinerea [7] = assay: Field trial, Botrytis cinerea on strawberries (Senga-Sengana); type: in vivo; settings: 100, 300, and 900 g a.i./ha, four sprayings
Text: Field trial performed in Funen, Denmark, in accordance with the EPPO guidelines (Guideline for the Biological Evaluation of Fungicities. Botrytis cinerea on Strawberries). The plot size was 20 m^2 and three replicates were used. The active compound was used in a test formulation containing approximately 10% active ingredient (a.i.). Three concentrations of active compound were applied: 100, 300, and 900 g a.i./ha. The spraying volume was 1200 l/ha. The strawberries were sprayed at the following growth stages: T1, onset of flowering; T2 : 10% flowering; T3, 50% flowering; and T4, 80% flowering. The commercial fungicide ROVRAL® was used as standard reference. The assessment was performed by counting and weighing healthy and infected strawberries, respectively.

Question: For `CC[C@H](C)[C@H]1C(=O)NCC(=O)N(C)[C@@H](C(C)C)C(=O)N[C@@H](Cc2ccc(OC)cc2)C(=O)O[C@H](C)C(=O)N2CCCC[C@H]2C(=O)N(C)[C@@H](C(C)C)C(=O)N[C@@H](C(C)C)C(=O)N(C)[C@@H](CC(=O)O)C(=O)N(C)[C@@H](C(C)C)C(=O)N1C` [BK 202, cyclo- Pec-MeVal-Val-MeAsp-MeVal-MeIle-Gly-MeVal-TyrOMe-D-Lact!] (cyclo(G[NMeV]Y(Me)[dLac][Pip][NMeV]V[NMeD][NMeV][NMeI])), which inhibition of growth (A. fumigatus) is on record?
Answer: very strong

Question: And the inhibition of growth (P. digitatum)?
Answer: very strong

Question: What about the inhibition of growth (S. sclerotiorum) of the same molecule?
Answer: very strong

Question: And the “dermal irritation score, Skintex® test” value [1]?
Answer: lowest possible irritation

Question: What about the inhibition of growth (A. pisi) of the same molecule?
Answer: very strong

Question: What about the “fungicidal effect on injured apples” value (Botrytis cinerea [2]) of the same molecule?
Answer: prevented the growth of fungus completely

Question: What about the fungicidal activity (Ascomycetous species) of the same molecule?
Answer: most active

Question: What about the fungicidal activity (Oornycetous species) of the same molecule?
Answer: practically no activity

Question: And the “IC50, Chemiluminescent” value [3]?
Answer: > 10 µg/mL

Question: And the inhibition of growth (V. inequalis)?
Answer: very strong

Question: What about the fungicidal activity (Deuterornycetous species) of the same molecule?
Answer: most active

Question: What about the inhibition of growth (P. teres) of the same molecule?
Answer: very strong

Question: What about the “stability at pH values above 8” value ([4]; 25°-55° C.) of the same molecule?
Answer: decreases rapidly

Question: And the “stability optimum (pH)” value ([4]; 25°-55° C., stability seems independent of temperature)?
Answer: ~7

Question: What about the “stability at pH values below 7” value ([4]; except at 25° C., where the decrease seems rapid (possibly experimental error)) of the same molecule?
Answer: decreases slowly

Question: What about the inhibition of growth (P. sorghina) of the same molecule?
Answer: weaker

Question: What about the fungicidal activity (Zygomycetous species) of the same molecule?
Answer: Only weak activity

Question: What about the “fungicidal effect (intensity of infection, FIG. 9) compared to both RONILAN® and BASULTRA®” value (Botrytis cinerea [5]) of the same molecule?
Answer: superior

Question: And the Ames spot tests (Ames spot tests)?
Answer: no indication of toxicity

Question: What about the inhibition of growth (C. beticola) of the same molecule?
Answer: weaker

Question: And the “growth, Isolate C” value ([6]; concentration 0.125 (unit not given))?
Answer: 0 mm

Question: What about the “growth, Isolate C” value ([6]; concentration 2 (unit not given)) of the same molecule?
Answer: 0 mm

Question: And the “growth, Isolate C” value ([6]; concentration 10 (unit not given))?
Answer: 0 mm

Question: And the “fungicidal effect (degree of infection, FIG. 8) compared to ROVRAL®” value (Botrytis cinerea [7])?
Answer: superior
